Source: a melting point compilation (Tetko et al.; mined from patent text by program, amines drawn as free bases though some values may be those of a salt)

SMILES	melting point [°C]
CCOC(=O)c1c(N2CCN(C=O)CC2)c2cc(F)ccc2n(Cc2ccccc2)c1=O	206
CCOC(=O)C(C)(C)Oc1ccc(OCc2oc(-c3ccc(C(F)(F)F)cc3)cc2C(=O)O)cc1	87 to 88
Cc1cc2c(cc1C)C1(CO2)C(=O)N(CC2CCOCC2)c2ccccc21 (centres undefined)	199 to 201
CC(=O)Oc1ccc(C2=CC(C)(C)c3ccccc3O2)cc1	84 to 86
COc1ccc(CC(SC)C(=O)O)cc1C(=O)NCc1ccc(C(F)(F)F)cc1 (centres undefined)	170 to 171
Cc1ccn2cc(CN3CCN(c4ccc(C(N)=O)cc4)CC3)nc2c1	217 to 218
Cc1cc(OC(C)(C)C(=O)O)cc(C)c1C	77 to 78
CCOC(=O)c1[nH]c2cccnc2c1-c1ccc([N+](=O)[O-])cc1	234 to 236
NC(=O)c1sc(-c2ccccc2)cc1N	180 to 182
COC(=O)c1ccccc1S(=O)(=O)NC(=O)Nc1nc(C)cc(COC(C)=O)n1	145 to 150
CCc1nc2c(N)nc3ccccc3c2n1CCCCS(=O)(=O)NC	190 to 191
CC(=O)c1ccc(CNC(=O)c2cccnc2Oc2cccnc2)s1	201 to 203
CCCCCCCCCCC(O)c1ccc2oc([N+](=O)[O-])c(-c3ccccc3)c2c1 (centres undefined)	84 to 85
CCCCNS(=O)(=O)CC(O)C(O)C(CC1CCCCC1)NC(=O)c1ccccc1 (centres undefined)	153 to 155
Nn1cccc1C(=O)c1ccccc1Cl	76 to 78
Cc1c(C#N)c(-c2ccc(C#N)cc2)c(C)n1Cc1cnc(Cl)c(CO)c1	147 to 148
CC(CN1CCn2c(c(-c3ccccc3)c3cc(Cl)ccc32)C1=O)N(C)C (centres undefined)	151 to 152
CCOc1ccc(C=O)c(Oc2ccc(Cl)cc2Cl)n1	95 to 96
COc1ccc2cc([C@H](C)C(=O)OCCOc3ccc(OCCO)cc3)ccc2c1	76 to 78
OC(CN1CCN(Cc2ccccc2)CC1)Cn1c2ccc(Br)cc2c2cc(Br)ccc21 (centres undefined)	70 to 75
Oc1ccc2sc(C=C3C4CC5CC(C4)CC3C5)nc2c1	156 to 158
O=c1c(CCCc2nccs2)cc2cccnc2n1-c1cccc([N+](=O)[O-])c1	198 to 199
CCCCCCCCCCCCCCCCCCOc1ccc(S(=O)(=O)Nc2ccccc2Cl)cc1NC(=O)CC(=O)N1CCc2ccccc21	124 to 128
Cc1ccc(C2=C(c3ccc(S(C)(=O)=O)cc3)C(=O)N(C)C2)cc1	183 to 185
NC(=O)N(O)CC#CCOc1cccc(Oc2ccccc2)c1	105 to 107

SMILES	melting point [°C]
CCCCc1cc2c(=O)n3cc(C(=O)O)ccc3nc2s1	250 to 252
CCON1C(C)(C)CC(O)CC1(C)C	86 to 88
Cc1cc(C)c(-c2csc3c(Cl)cc(C)nc23)c(C)c1	129 to 131
OC[C@H]1O[C@@H](n2cnc3c(N[C@@H]4CCN(c5ccc(C(F)(F)F)cn5)C4)ncnc32)[C@H](O)[C@@H]1O	166 to 170
CC(=O)N1c2ccc(S(=O)(=O)C[N+](=O)[O-])c(C)c2CC1C (centres undefined)	157
Fc1ccc(N2CCN(c3cccc(C(F)(F)F)c3)CC2)nn1	132
O=C(Nc1nc(Cl)nc(Cl)n1)NS(=O)(=O)c1cccc2cccnc12	145 to 147
CCOC(=O)c1cnn(C)c1C(=O)Nc1ccn2nc(N3CCCC3)nc2c1	233 to 234
Clc1ccc(C2(CBr)OCC(c3ccccc3)O2)cc1 (centres undefined)	60
COc1ccc(-c2ccc(C(=O)O)cc2)cc1-c1ccc2c(c1)C(C)(C)CCC2(C)C	251 to 255
C=CCOc1ccc(-c2cc(N)n[nH]2)cc1	158 to 159
CN1CCn2c1c(-c1ccccc1)c1ncccc1c2=O	237 to 240
COc1cc(OC)c(NC(=O)NC2(c3ccccc3)CCCC2)c(OC)c1	193 to 195
COC(=O)Nc1cc(Oc2ccc3c(C(=O)Nc4ccc(CN5CCN(C)CC5)c(C(F)(F)F)c4)nccc3c2)ncn1	203 to 205
Nc1nc2cccnc2c2c1nc(CO)n2CC1(O)CCC1	244 to 246
COc1ccc(NS(=O)(=O)c2ccc(N3CCC(NCC(O)c4ccc(O)c(NS(C)(=O)=O)c4)CC3)cc2)cc1OC (centres undefined)	205 to 218
O=C(c1ccc(F)cc1)n1c2c(c3ccccc31)CC(C(=O)O)(C(=O)O)CC2	190 to 195
CNC(=O)OC(C(Oc1ccc(Cl)cc1Cl)n1cncn1)C(C)(C)CF (centres undefined)	124 to 127
CCOc1cc(Cc2cnc(N)nc2N)cc(OCC)c1-c1ccc(CNCC(F)(F)F)cc1	146 to 149
COc1ccc([C@@H]2Sc3cc(Oc4ccc(F)cc4)ccc3NC(=O)[C@@H]2O)cc1F	222 to 224
O=C(O)c1cn(CCCc2ccccc2)c2cc(C3CC3)nn2c1=O	95 to 100
COC(=O)c1ccccc1S(=O)(=O)c1ccc(/C=C/c2ccc(F)cc2)cc1	125
COC(=O)c1ccc(C2=NC(C)(C)Cc3cc(OC)c4c(c32)CC(C)(C)O4)cc1NC(=O)C(F)(F)F	146 to 147
COc1ccc(S(=O)(=O)Nc2c(Cl)cncc2Cl)c2c1oc1ccccc12	242 to 244
